The test system of one series is CLL patients. On the set-up: method as in PMID 23291630, PMID 31160589. Particulars: CLL patients ref 28,29; cited from earlier work.
For series [1], the system named is cancer cells isolated from CLL patients. Particulars: cancer cells isolated from CLL patients ref 39; cited from earlier work.
In series [2] the test system is chemoresistant DG-75 cell line. On the set-up: method as in PMID 31963567. Particulars: chemoresistant DG-75 cell line ref 43; cited from earlier work.
The test system of series [3] is HG-3 cells. As to the kind of experiment: alamarBlue viability after pan-caspase inhibitor Z-VAD-FMK pre-treatment. It counts as cell-based, human. The text has this:
Caspases (cysteine-aspartic proteases) are a family of aspartic acid residue-specific regulatory cysteine proteases that play an essential role in key cellular homeostatic processes such as inflammation and programmed cell death through the induction of apoptosis. To assess whether the biological activity of both major ethanoanthracene classes (nitrostyrene and chalcone-based) is caspase-dependent, compounds 20a and 23a (representing Series 1 and Series 4, respectively) (Figure 13) were selected for evaluation at treatment concentrations of 10 µM and 1 µM across both CLL cell lines using a caspase assay protocol. In HG-3 cells, pre-treatment with pan-caspase inhibitor (CI) Z-VAD-FMK [85] […] Little difference was found between cell viability responses (with or without the caspase inhibitor) at both 10-µM and 1-µM concentrations for compound 20a.
Compounds 20a and 23a (representing Series 1 and Series 4, respectively) were selected for evaluation at two treatment concentrations, 10 µM and 1 µM, across both HG-3 and PGA-1 CLL cells. […] The output was statistically analyzed using a one-way ANOVA with a Bonferroni multiple-comparison test. […]
For orientation: Resazurin is reduced to fluorescent resorufin, in cell work by metabolically active cells.

Series [4] has as its system chemosensitive MUTU-1 cell line. On the set-up: method as in PMID 31963567. Particulars: chemosensitive MUTU-1 cell line ref 43; cited from earlier work.
The test system of series [5] is PGA-1 cells. The experiment in a line: alamarBlue cell viability assay. The conditions noted are these: Homo sapiens, 24 h.
In series [6] the test system is HG-3 cells. As to the kind of experiment: alamarBlue cell viability assay. The conditions noted are these: Homo sapiens, HG-3, 24 h.
Series [7] relates to HG-3 cells. As to the kind of experiment: Annexin V/PI apoptosis assay (FACS). The series is classed as cell-based, human. Here is the method: (§1) The pro-apoptotic effects of selected nitrovinylethanoanthracene compounds 20a and 20f and anthracene chalcones 23a and 25n in HG-3 cells and PGA-1 cells was then investigated using FITC (fluorescein isothiocyanate), Annexin V/PI (propidium iodide) and FACS (fluorescence-activated cell sorting) analysis to characterize the mode of cellular death induced. Apoptosis was assessed as % total apoptosis (total of early (Q3) and late (Q2) apoptosis).
(§2) CLL cells PGA-1 and HG-3 (1 × 10^6 cells/mL) were treated at 37 °C with either the vehicle (1% (v/v) DMSO) or the ethanoanthracene compounds 20a, 20f, 23a and 25n (10 µM, 5 µM and 1 µM) for 48 h, following the protocol previously described. The cells were then harvested via centrifugation at 400× g in a temperature-controlled Sorvall centrifuge. The cells were rinsed with Ca^2+ Annexin-V-binding buffer (0.1 M HEPES, pH 7.4; 0.14 M NaCl; 25 mM CaCl2, 0.5 mL). The samples were resuspended in FITC Annexin V (diluted 1:33 in Ca^2+ Annexin V-binding buffer, 50 µL) and incubated for 10 min (on ice and protected from light). The samples were washed with Annexin-V-binding buffer and resuspended in a PI solution (0.5 µg/mL, 500 µL) and analyzed within 1 h using a BD Accuri C6 flow cytometer counting 10,000 cells using the FlowJo software Version 10 (FlowJo LLC, Ashland, OR, USA).

Series [8] deals with PGA-1 cells. As to the kind of experiment: Annexin V/PI apoptosis assay (FACS). The series is classed as cell-based, human. On the procedure: as §1, §2
Series [9] has as its system healthy-donor peripheral blood mononuclear cells (PBMCs). As to the kind of experiment: Annexin V/PI assay in donor PBMCs. The series is classed as cell-based. Particulars: 0.34 and 0.68 µM, 48 h. The text has this:
Whole blood samples from healthy donors (×5) were isolated, prepared and treated following the protocol previously described. The percentage of apoptosis observed in the treatment of isolated donor PBMCs with nitrovinylethanoanthracene 20a is concentration-dependent (Figure 11A). […] For ethanoanthracene 23a, the percentage of total apoptosis observed is illustrated in Figure 11B. […] The percentage of total apoptosis observed in the treatment of isolated donor PBMCs with the anthracene–chalcone 25n (normalized against vehicle 0.5% v/v DMSO) is illustrated in Figure 11C, and the dose-response behavior was also concentration-dependent, with compound 25n moderately toxic to healthy-donor PBMCs when treated at a 5.00 µM concentration (39%).
The human peripheral blood mononuclear cells (PBMCs) were generated as follows: peripheral blood was obtained from healthy donors (n = 2) after informed consent was received. The blood was then placed into a 50-mL falcon tube and diluted with an equal volume of phosphate-buffered saline (PBS). PBMCs were isolated using density-gradient centrifugation with LymphoPrep, as described previously. The cells were resuspended in RPMI media containing 10% FBS and 1% penicillin/streptomycin (P/S). The cells were counted using a haemocytometer and seeded into 96 well plates at a density of 1 × 10^5 cells/well (200 µL), and they were incubated at 37 °C for 1 h prior to compound treatment. The Annexin V/PI assay was used as a preliminary method of assessing the selective toxicity of the above compounds when compared with a previous alamarBlue cell viability assay in CLL cell lines. The assay was carried out as described above for the Annexin V/PI assay previously described above, and it was completed in triplicate on two independent days. Approval for this study was obtained from the School of Pharmacy and Pharmaceutical Sciences Trinity College Dublin Research Ethics Committee (2020-06-01-MS).

In series [10] the test system is HG-3 cells. The experiment in a line: LDH cytotoxicity assay (CytoTox 96). The series is classed as cell-based. The conditions noted are these: HG-3, 10 µM, 24 h, lysis solution = 100%. The text has this: (§3) The lactate dehydrogenase (LDH) assay is used to assess the membrane integrity of cells as a function of the cytoplasmic LDH released. The loss of cell membrane integrity (due to cytotoxic insult) is detectable through LDH release into the cell growth medium. The assay is initiated via the reduction in cellular co-factor NAD^+ to NADH catalyzed via the LDH enzyme. Newly formed NADH catalyzes the acidic reduction in iodonitrotetrazolium chloride (INT) to the highly colored formazan (red) (mediated via the diaphorase enzyme). […] At the 10-µM treatment concentration, mild to moderate cytotoxicity (19–47%) was observed. […] Cytotoxicity remained low to mild at 1 µM (4–18%) with 23a displaying the lowest LDH release (4%).
(§4) Following the treatment of the HG-3 and PGA-1 cells at 10 µM for 24 hr, the amount of LDH released was determined using an LDH assay kit from Promega (G1780). Cell lysis solution = 100% cell lysis and LDH release). Data are presented as % cell death at a concentration of 10 µM. Cells were treated with ethanoanthracene compounds 20a, 20f, 23a and 25n (1 µM and 10 µM) for 24 h. Values are shown as the mean of three independent experiments.
(§5) The cytotoxicity of the selected compounds 20a, 20f, 23a and 25n was determined using the CytoTox 96 non-radioactive cytotoxicity assay (Promega Corporation; 2800 Woods Hollow Road, Madison, WI, USA). CLL cells HG-3 and PGA-1 were incubated for 24 h and then treated with the selected compounds 20a, 20f, 23a and 25n at 10-µM and 1-µM concentrations, following the protocol outlined above in the cell viability assay. After 24 h, the lysis solution (10×) (20 µL) was added, and the cells were incubated for a further 1 h to ensure complete cell death. Supernatant (50 µL) was removed from each well and transferred to a clean 96-well plate. “Substrate mix” (50 µL) was added, and the plate was stored in the dark at 20 °C for 30 min. “Stop solution” (50 µL) was added to each well, and the absorbance at 490 nm was recorded using a Dynatech MR5000 plate reader; the % cell death was determined relative to the control cell lysis solution.

For series [11], the system named is PGA-1 cells. As to the kind of experiment: LDH cytotoxicity assay (CytoTox 96). It counts as cell-based. Particulars: PGA-1, 10 µM, 24 h.
From the text: as §3, §4, §5

The subject of series [12] is HG-3 and PGA-1 cell lines. As to the kind of experiment: alamarBlue cell viability assay, mean of both CLL cell lines. It counts as cell-based, human. The conditions noted are these: Homo sapiens, CLL cell; mean of HG-3 and PGA-1.

Each structure is given as a SMILES string. Where “and” joins values, the source holds several entries; their conditions need not be identical. Equal values may be shown once.

In general, IC50 refers to the concentration that inhibits the measured activity by half. Usually viability stands for a per cent measure of how many cells are alive, often set against a control.

Regarding `CC1(C)CCC(CN2CCN(c3ccc(C(=O)NS(=O)(=O)c4ccc(NCC5CCOCC5)c([N+](=O)[O-])c4)c(Oc4cnc5[nH]ccc5c4)c3)CC2)=C(c2ccc(Cl)cc2)C1` [Venetoclax], the overall response in the series with CLL patients is on record as 80%.
Take `Nc1nc(F)nc2c1ncn2[C@@H]1O[C@H](COP(=O)(O)O)[C@@H](O)[C@@H]1O` [fludarabine phosphate]: the increase in apoptosis in series [1] is 24.6%.
For the compound `O=C1C2C3c4ccccc4C(C=C[N+](=O)[O-])(c4ccccc43)C2C(=O)N1c1ccccc1` (stereo not drawn) [Compound 20a], the IC50 is 710 nM in [2]; 210 nM in [4]; 610 nM with PGA-1 cells [5] (read-out: PGA-1 IC50); 480 nM with HG-3 cells [6] (read-out: HG-3 IC50); 550 nM in [12]. Further, the “decrease in cell viability after Z-VAD-FMK pre-treatment” value with HG-3 cells [3] (HG-3, 1 µM compound) is given as 2%; with HG-3 cells [3] (HG-3, 10 µM compound), 10%. The viability at 10 µM was 11% with PGA-1 cells [5] (read-out: cell viability) and 14 to 43% in the series on HG-3 cells [6] (read-out: cell viability, HG-3, 10 µM, 24 h, vehicle = 100%). Moreover, the “total apoptosis (early Q3 + late Q2)” value in the series on HG-3 cells [7] (HG-3, 1 µM) was 82%; in the series with HG-3 cells [7] (HG-3, 10 µM) it was 82–95% and 95%; in the series with PGA-1 cells [8] (PGA-1, 1 µM) it was 83%; in the series on PGA-1 cells [8] (PGA-1, 10 µM), 87–97% and 97%. In series [9], the “total apoptosis (toxicity) in healthy-donor PBMCs” value was 10–35%. Besides, the “LDH release (cytotoxicity, % cell death)” value stood at 33% in the series on HG-3 cells [10] and 9% in the series with PGA-1 cells [11].

The record behind these values is publication PMC11359702, “Synthesis and Biochemical Evaluation of Ethanoanthracenes and Related Compounds: Antiproliferative and Pro-Apoptotic Effects in Chronic Lymphocytic Leukemia (CLL)” (Pharmaceuticals, 2024).
